Assay results as given in ChEMBL document CHEMBL3580661, “Structure-Guided Design of Group I Selective p21-Activated Kinase Inhibitors” (J Med Chem, 2015).
≈ marks a conversion by molar mass, not a printed value. Values belong to the compound of their own block, whether it stands above or below them.

How the values were obtained:
[1] = molecular target: T1, Serine/threonine-protein kinase PAK 1 (Homo sapiens, UniProt Q13153); experiment: Inhibition of PAK1 (unknown origin)
[2] = molecular target: T2, Serine/threonine-protein kinase PAK 4 (Homo sapiens, UniProt O96013); experiment: Inhibition of human PAK4
T2 sequence (O96013 whole entry, the tested form may be a part): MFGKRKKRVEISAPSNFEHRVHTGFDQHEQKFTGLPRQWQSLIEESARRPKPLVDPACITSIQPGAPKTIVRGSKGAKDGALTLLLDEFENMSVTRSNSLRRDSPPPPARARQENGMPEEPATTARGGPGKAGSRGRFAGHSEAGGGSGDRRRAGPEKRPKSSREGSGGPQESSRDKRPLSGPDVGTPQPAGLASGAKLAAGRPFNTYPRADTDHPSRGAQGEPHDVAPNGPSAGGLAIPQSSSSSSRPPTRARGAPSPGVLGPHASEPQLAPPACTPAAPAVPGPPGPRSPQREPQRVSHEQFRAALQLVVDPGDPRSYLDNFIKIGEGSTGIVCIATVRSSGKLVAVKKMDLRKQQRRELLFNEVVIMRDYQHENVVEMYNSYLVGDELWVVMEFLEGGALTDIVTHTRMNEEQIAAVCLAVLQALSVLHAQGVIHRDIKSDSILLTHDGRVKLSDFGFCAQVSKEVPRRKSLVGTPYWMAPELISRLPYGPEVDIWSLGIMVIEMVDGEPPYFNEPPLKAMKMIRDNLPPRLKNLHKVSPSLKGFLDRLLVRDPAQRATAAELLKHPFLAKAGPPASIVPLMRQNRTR

[3] = molecular target: T2, Serine/threonine-protein kinase PAK 4; experiment: Inhibition of human recombinant PAK4 kinase domain using coumarin/fluorescein-labeled FRET peptide as substrate assessed as substrate phosphorylation at Ser/Thr19 preincubated for 10 mins followed by ATP addition measured after 60 mins by Z'-LYTE assay
[4] = Metabolic stability in rat liver S9 fraction assessed as compound remaining at 1 uM measured at 60 mins in presence of NADPH; assay type: ADME, subcellular; conditions: read-out: Stability
[5] = Drug metabolism in rat liver S9 fraction assessed as N-acetyltransferase-mediated metabolite formation by measuring parent compound level at 1 uM after 60 mins in presence of acetyl CoA, NADPH; assay type: ADME, subcellular; conditions: s9, 1 h
[6] = molecular target: T1, Serine/threonine-protein kinase PAK 1; experiment: Inhibition of human recombinant PAK1 kinase domain using coumarin/fluorescein-labeled FRET peptide as substrate assessed as substrate phosphorylation at Ser/Thr19 preincubated for 10 mins followed by ATP addition measured after 60 mins by Z'-LYTE assay
[7] = tested on: Liver; experiment: Metabolic stability in rat liver S9 fraction at 1 uM after 60 mins in absence of NADPH; assay type: ADME; conditions: s9, 1 h
[8] = Kinetic solubility of the compound; assay type: physicochemical; conditions: read-out: Kinetic_solubility
[9] = Apparent permeability across basolateral to apical side in MDCK cells; assay type: ADME, cell-based, Canis lupus familiaris; conditions: dog
[10] = tested on: Rattus norvegicus; experiment: Plasma clearance in rat at 2.5 mg/kg, iv administered as bolus dose; assay type: ADME, organism-based; conditions: in vivo
[11] = tested on: Hepatocyte; experiment: Drug uptake in mouse hepatocytes; assay type: ADME, cell-based
[12] = molecular target: T1, Serine/threonine-protein kinase PAK 1; experiment: Inhibition of PAK1 in human EBC1 cells assessed as inhibition of MEK phosphorylation at S298 after 2 hrs by HTRF assay; assay type: cell-based
[13] = Lipophilicity, log D of the compound; assay type: physicochemical; conditions: octanol/water
[14] = tested on: Mus musculus; experiment: Plasma clearance in mouse at 2 mg/kg, iv administered as bolus dose; assay type: ADME, organism-based; conditions: in vivo
[15] = tested on: Liver; experiment: Metabolic stability in rat liver S9 fraction at 1 uM after 60 mins in presence of NADPH; assay type: ADME, subcellular; conditions: s9, 1 h
[16] = Apparent permeability across apical to basolateral side in MDCK cells; assay type: ADME, cell-based, Canis lupus familiaris; conditions: dog
[17] = Drug metabolism in rat liver S9 fraction assessed as oxidative metabolite formation by measuring parent compound level at 1 uM measured over 60 mins in presence of NADPH; assay type: ADME, subcellular; conditions: s9, 1 h
[18] = Drug metabolism in rat liver S9 fraction assessed as N-acetyltransferase-mediated metabolite formation by measuring parent compound level at 1 uM after 80 mins in presence of acetyl CoA, NADPH; assay type: ADME, subcellular; conditions: s9, 80 min
[19] = Plasma clearance in rat at 2 mg/kg, iv administered as bolus dose; assay type: ADME, organism-based
[20] = Drug metabolism in rat liver S9 fraction assessed as glucuronide metabolite formation at 1 uM in presence of UDPGA; assay type: ADME, subcellular; conditions: s9, 1 µM
[21] = Lipophilicity, log D of the compound at pH 7.4; assay type: physicochemical; conditions: buffer
[22] = Drug metabolism in rat liver S9 fraction assessed as N-acetyltransferase-mediated metabolite formation at 1 uM measured over 60 mins in presence of acetyl CoA, NADPH; assay type: ADME, subcellular; conditions: s9, 1 h
[23] = Plasma protein binding in rat; assay type: ADME, cell-free; conditions: read-out: PPB (converted)
[24] = Plasma clearance in rat at 1 mg/kg, iv administered as bolus dose; assay type: ADME, organism-based
[25] = Oral bioavailability in rat at 5 mg/kg; assay type: ADME, organism-based; conditions: in vivo
[26] = molecular target: T3, Aurora kinase A (Homo sapiens, UniProt O14965); experiment: Inhibition of aurora A (unknown origin)
T3 sequence (O14965 whole entry): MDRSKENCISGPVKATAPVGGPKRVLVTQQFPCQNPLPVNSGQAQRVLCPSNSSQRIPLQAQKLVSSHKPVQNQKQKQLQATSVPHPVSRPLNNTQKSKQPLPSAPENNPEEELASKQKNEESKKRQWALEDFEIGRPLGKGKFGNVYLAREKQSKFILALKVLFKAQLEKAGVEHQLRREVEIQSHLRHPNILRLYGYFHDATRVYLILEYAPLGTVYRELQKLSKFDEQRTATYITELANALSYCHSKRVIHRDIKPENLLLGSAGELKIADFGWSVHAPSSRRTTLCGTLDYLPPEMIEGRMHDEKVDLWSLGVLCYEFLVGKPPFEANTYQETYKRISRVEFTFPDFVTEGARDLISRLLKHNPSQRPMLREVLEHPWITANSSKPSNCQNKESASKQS

T1 sequence (Q13153 whole entry): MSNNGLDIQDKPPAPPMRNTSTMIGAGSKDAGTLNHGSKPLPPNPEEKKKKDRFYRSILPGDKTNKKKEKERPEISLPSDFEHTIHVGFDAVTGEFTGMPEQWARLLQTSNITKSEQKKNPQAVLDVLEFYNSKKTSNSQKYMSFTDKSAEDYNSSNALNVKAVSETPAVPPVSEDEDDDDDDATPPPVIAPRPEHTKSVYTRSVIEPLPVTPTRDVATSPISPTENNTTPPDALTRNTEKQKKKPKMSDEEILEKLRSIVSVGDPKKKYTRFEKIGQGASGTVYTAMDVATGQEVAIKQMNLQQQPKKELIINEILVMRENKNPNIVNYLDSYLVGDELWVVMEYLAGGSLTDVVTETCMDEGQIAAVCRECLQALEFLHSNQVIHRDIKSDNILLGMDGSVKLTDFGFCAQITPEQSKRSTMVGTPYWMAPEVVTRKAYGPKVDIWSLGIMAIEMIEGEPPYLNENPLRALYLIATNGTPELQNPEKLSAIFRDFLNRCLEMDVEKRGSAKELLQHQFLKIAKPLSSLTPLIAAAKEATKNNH

SMILES: N[C@@H]1[C@H]2CN(c3nc(Nc4cc(C5CC5)[nH]n4)c4sccc4n3)C[C@@H]12
Ki [1]: 50 nM
Ki [2]: 2 nM

SMILES: CC1CCN(c2nc(Nc3cc(C4CC4)n[nH]3)c3ccccc3n2)CC1
Ki [1]: 100 nM
Ki [2]: 49 nM

SMILES: NC1CCN(c2nc(Nc3cc(C4CC4)[nH]n3)c3sccc3n2)CC1
Ki [3]: 12 nM
remaining at 1 h, 1 µM [4]: 51%
Stability [5]: < 1%
Ki [6]: 22 nM
Stability [7]: Stable

SMILES: NC1CCN(c2nc(Nc3cc(C4CCC4)[nH]n3)c3sccc3n2)CC1
Ki [6]: 18 nM

SMILES: NC1CCN(c2nccc(Nc3cc(C4CC4)[nH]n3)n2)CC1
Ki [3]: 283 nM
Ki [6]: 454 nM

SMILES: NC1CCN(c2cccc(Nc3cc(C4CC4)[nH]n3)n2)CC1
Ki [3]: 612 nM
Ki [6]: 561 nM

SMILES: c1cc(Nc2cc(C3CC3)[nH]n2)nc(NCC2CCNCC2)n1
Ki [3]: 80 nM
Ki [6]: 245 nM

SMILES: N[C@H]1CC[C@H](Nc2nccc(Nc3cc(C4CC4)[nH]n3)n2)CC1
Ki [3]: 100 nM
Ki [6]: 157 nM

SMILES: N[C@H]1CC[C@@H](CNc2nccc(Nc3cc(C4CC4)[nH]n3)n2)CC1
Ki [3]: 4 nM
Ki [6]: 21 nM

SMILES: CNc1ccc(CNc2nccc(Nc3cc(C4CC4)[nH]n3)n2)cn1
Ki [3]: 610 nM
Ki [6]: 346 nM

SMILES: CN(C)c1ccc(CNc2nccc(Nc3cc(C4CC4)[nH]n3)n2)cn1
Ki [3]: 907 nM
Ki [6]: 1470 nM

SMILES: C[C@H](Nc1nccc(Nc2cc(C3CC3)[nH]n2)n1)c1ccc2[nH]cnc2c1
Ki [3]: 106 nM
Papp B→A [9]: 6.8 ×10⁻⁶ cm/s
fraction unbound [23]: 0.011
clearance [19]: 20.3 mL/min/kg
IC50 [12]: 281 nM
Ki [6]: 12 nM
Papp A→B [16]: 0.9 ×10⁻⁶ cm/s

SMILES: CCN(Cc1ccc2[nH]cnc2c1Cl)c1nccc(Nc2cc(C3CC3)[nH]n2)n1
Ki [26]: 5.3 nM
Ki [3]: 547 nM
Papp B→A [9]: 11.1 ×10⁻⁶ cm/s
clearance [24]: 61 mL/min/kg
fraction unbound [23]: 0.007
IC50 [12]: 85 nM
Ki [6]: 5 nM
Papp A→B [16]: 7.4 ×10⁻⁶ cm/s

SMILES: C[C@@H](Nc1nccc(Nc2cc(C3CC3)[nH]n2)n1)c1ccc2[nH]ccc2c1
Ki [6]: 1900 nM

The remaining compounds from weak to strong by Ki [6], led by results:

Ki [3]: 1820 nM
Ki [6]: 4390 nM
SMILES: NC1CCN(c2cc(Nc3cc(C4CC4)[nH]n3)ccn2)CC1

Ki [6]: 660 nM
SMILES: NC1CCN(c2nc(Nc3cc(-c4ccccc4)[nH]n3)c3sccc3n2)CC1

Ki [3]: 1660 nM
Ki [6]: 607 nM
SMILES: Cn1cnc2cc(CNc3nccc(Nc4cc(C5CC5)[nH]n4)n3)ccc21

Ki [3]: 1900 nM
Ki [6]: 584 nM
SMILES: Cn1cnc2ccc(CNc3nccc(Nc4cc(C5CC5)[nH]n4)n3)cc21

Ki [6]: 179 nM
SMILES: Cc1cc(Nc2nc(N3CCC(N)CC3)nc3ccsc23)n[nH]1

Ki [3]: 1110 nM
Ki [6]: 179 nM
SMILES: Fc1c(CNc2nccc(Nc3cc(C4CC4)[nH]n3)n2)ccc2[nH]cnc12

Ki [3]: 563 nM
Stability [17]: 60%
Stability [18]: 50%
clearance [19]: 122 mL/min/kg
Ki [6]: 138 nM
Drug metabolism [20]: metabolite_notdetected
SMILES: Nc1ccc(CNc2nccc(Nc3cc(C4CC4)[nH]n3)n2)cn1

Ki [3]: 45 nM
Ki [6]: 119 nM
SMILES: NC1CCN(c2nc(Nc3cc(C4CC4)[nH]n3)c3occc3n2)CC1

Ki [3]: 961 nM
logD [21]: 2.5
clearance [19]: 24.1 mL/min/kg
Ki [6]: 117 nM
Drug metabolism [22]: metabolite_notdetected
SMILES: c1cc(Nc2cc(C3CC3)[nH]n2)nc(NCc2ccc3[nH]cnc3c2)n1

Ki [6]: 48 nM
SMILES: CCCc1cc(Nc2nc(N3CCC(N)CC3)nc3ccsc23)n[nH]1

Ki [6]: 33 nM
SMILES: CCc1cc(Nc2nc(N3CCC(N)CC3)nc3ccsc23)n[nH]1

Ki [6]: 33 nM
SMILES: CC(C)c1cc(Nc2nc(N3CCC(N)CC3)nc3ccsc23)n[nH]1

Ki [3]: 42 nM
clearance [19]: 30 mL/min/kg
IC50 [12]: 120 nM
Ki [6]: 31 nM
SMILES: C[C@H](Nc1nccc(Nc2cc(C3CC3)[nH]n2)n1)c1ccc2[nH]ccc2c1

Ki [3]: 144 nM
logD [21]: 3
clearance [19]: 30.1 mL/min/kg
Ki [6]: 27 nM
SMILES: c1cc(Nc2cc(C3CC3)[nH]n2)nc(NCc2ccc3[nH]ccc3c2)n1

Ki [3]: 38 nM
solubility kinetic [8]: 149 µM (≈ 48.9 µg/mL)
Papp B→A [9]: 2 ×10⁻⁶ cm/s
clearance [10]: 158 mL/min/kg
Drug uptake [11]: Active
Stability [5]: 69.3%
IC50 [12]: 2200 nM
logD [13]: -0.2
clearance [14]: 83 mL/min/kg
Ki [6]: 26 nM
Stability [7]: Stable
Stability [15]: Stable
Papp A→B [16]: 0.5 ×10⁻⁶ cm/s
SMILES: N[C@H]1CC[C@H](CNc2nccc(Nc3cc(C4CC4)[nH]n3)n2)CC1

Ki [3]: 455 nM
Papp B→A [9]: 6.3 ×10⁻⁶ cm/s
clearance [24]: 6.4 mL/min/kg
fraction unbound [23]: 0.002
IC50 [12]: 362 nM
Ki [6]: 5 nM
Papp A→B [16]: 2.8 ×10⁻⁶ cm/s
SMILES: Clc1c(CNc2nccc(Nc3cc(C4CC4)[nH]n3)n2)ccc2[nH]cnc12

Papp B→A [9]: 18 ×10⁻⁶ cm/s
clearance [24]: 67 mL/min/kg
fraction unbound [23]: 0.011
bioavailability [25]: 12%
IC50 [12]: 110 nM
Ki [6]: 4 nM
Papp A→B [16]: 1.9 ×10⁻⁶ cm/s
SMILES: CN(Cc1ccc2[nH]cnc2c1Cl)c1nccc(Nc2cc(C3CC3)[nH]n2)n1
